# Test results taken from patent US20220117989A1, “COMPOSITIONS AND METHODS FOR INDUCING OR SUPPLEMENTING SOCS3 TO ABROGATE TUMOR GROWTH AND PROLIFERATIVE RETINOPATHY” (Children's Medical Center Corporation, priority 2019, published 2022).
# Where two headings read alike, the source gives them in different places.
# Experiments:
# tumors = test: FACS of immune cells isolated from tumors treated with Naringenin or vehicle control; type: in vivo
# Protocol: FIG. 45 is a series of plots quantifying the tumor volume, total tumor cells isolated from tumors, total CD45 positive cells and percentage of CD45 positive cells vs. total cells in control- or Naringenin-treated tumors. 1,2,3,4,5 represents the individual tumor in each group. In order to determine whether Naringenin influences the infiltrating of different immune cell types into tumors, fluorescence-activated cell sorting (FACS) was conducted on cells isolated from tumors treated with Naringenin or vehicle control.
# [1] = system: Lewis lung carcinoma cell line; test: Lewis lung carcinoma (LLC) cells implanted in Socs3f/f and Socs3 Nestin ko mice, tumor growth curves; type: in vivo, mouse
# [2] = system: tumor associated macrophages; test: FACS analysis of tumor macrophage populations (M1, M2, TIDC); type: in vivo, mouse
# Excerpt: The impact of the above-recited modes of Socs3 modulation upon monocyte differentiation was examined (FIGS. 20-26), employing FACS analysis of monocyte populations (FIG. 20 provides an overview of the FACS approach, where green cells were positively charged and therefore sorted towards an anode plate while negatively charged red cells were sorted toward a […]).
# Socs3 = Socs3 levels after naringenin administration to tumor-bearing mice; type: in vivo, mouse
# Excerpt: The surprising efficacy of localized Socs3 overexpression in reducing tumor growth prompted interest in identifying compounds capable of up-regulating Socs3. One candidate molecule for up-regulation of Socs3 was Naringenin, a flavanone compound. […] Naringenin administration was also observed to have shrunk tumors at the day 12-13 timepoint examined, with 100% of tumors of Socs3f/f mice and 60% of tumors in Socs3 nestin conditional knockout mice observed to have shrunk at day 13 of the timecourse (FIGS. 18B and 18C).
# [3] = system: B16F10-Luciferase Melanoma cell line; type: in vivo, mouse
# tumor cell = settings: mouse, in vivo
# LLC tumor = type: in vivo, mouse; settings: as compared to PBS-treated controls
# Excerpt: The effect of donepezil treatment was also examined in wild-type, heterozygote alpha-7 AChR knockout mice and homozygote alpha-7 AChR knockout mice (FIG. 40A).
# [4] = agent administered to model mice, versus control animals
molecule,measurement,setting,value
O=C1C[C@@H](c2ccc(O)cc2)Oc2cc(O)cc(O)c21 [Naringenin],population of CD4+ T cells in the tumors,tumors; Naringenin treatment,did not change
same,percentage of CD45+ γδ T cells,tumors; Naringenin-treated group,increased
same,CD8+ T cell recruitment into tumors,tumors; Naringenin-treated tumors,variations
same,percentage of natural killer (NK) cells of CD45+ cells,tumors; compared to the control-treated group,higher
same,"tumors, based on tumor volume and total cells isolated from the entire tumors",tumors; compared with control group,significantly suppressed
same,"tumors observed to have shrunk, Socs3f/f mice","[1]; day 13 of the timecourse, Socs3f/f mice",100%
same,"tumors observed to have shrunk, Socs3 nestin conditional knockout mice","[1]; day 13 of the timecourse, Socs3 nestin conditional knockout mice",60%
same,"tumor growth, naringenin administration","[1]; treatment administered on day 4, Socs3-containing and Socs3 nestin conditional knockout mice",significantly decreased tumor growth
same,M1 macrophage levels,[2]; Socs3 neuronal deficient tumor,promote M1 macrophage levels
same,M2 macrophage levels,[2]; Socs3 neuronal deficient tumor,reducing M2 macrophage levels
same,M1 macrophage levels,[2]; wild-type tumor,promoted M1 macrophage levels
same,M2 macrophage levels,[2]; wild-type tumor,did not change M2 macrophage levels
same,Socs3 levels,Socs3,increased Socs3 levels
alpha-bungarotoxin [a-BTX],"tumor growth, LLC tumor cells","[1]; mouse, in vivo",promoted tumor growth
same,TIDC population (CD45+; F4/80+; CD11c+ cells),"[2]; mouse, in vivo",contracted
same,"tumor growth, B16F10 tumor cells","[3]; mouse, in vivo",promoted tumor growth
"O=C1NC[C@@]2(CN3CCC2CC3)O1 [AR-R17779, (2S)-2′H-spiro[4-azabicyclo[2.2.2]octane-2,5′-[1,3]oxazolidin]-2′-one]","tumor growth, LLC tumor cells",[1]; [4],significantly prevented tumor growth
same,tumor size,[1]; day 10 post-implantation in model mice,decreased tumor size
same,M1 macrophage levels,[2]; Socs3 neuronal deficient tumor,promoted M1 macrophage levels
same,M2 macrophage levels,[2]; Socs3 neuronal deficient tumor,not promoting M2 macrophage levels
same,M1 macrophage levels,[2]; wild-type tumor,promoted M1 macrophage levels
same,M2 macrophage levels,[2]; wild-type tumor,did not change M2 macrophage levels
Botulinum toxin [Botox],"tumor growth, nestin-conditional Socs3 knockout mice",tumor cell,no additional effect on tumor growth
same,"tumor growth, wild-type mice",tumor cell,effectively mimicked the tumor growth effect of nestin-conditional Socs3 knockout
same,tumor seeding,tumor cell,promoted tumor seeding
COc1cc2c(cc1OC)C(=O)C(CC1CCN(Cc3ccccc3)CC1)C2 (stereo not shown) [donepezil],"tumor growth, LLC tumor cells",[1]; [4],prevented tumor growth
same,F4/80+/CD11c+ (M1 macrophage) cells,"[2]; mouse, in vivo",expanded population
same,TIDC population (CD45+; F4/80+; CD11c+ cells),"[2]; mouse, in vivo",expanded
same,"tumor growth rate, homozygous alpha-7 AChR knockout mice",LLC tumor,robust reduction of tumor growth rate
same,"tumor growth, heterozygote alpha-7 AChR knockout mice",LLC tumor,significant reduction in tumor growth
same,"tumor growth, B16F10 tumor cells",[3]; [4],prevented tumor growth
